Measurements as given in patent publication US5503852A, “Method for making self-assembling diketopiperazine drug delivery system” (Pharmaceutical Discovery Corporation, priority 1994, dated 1996).

Columns and labels:
[1] = Blood glucose levels after insulin; format: in vivo, rats; details: subcutaneous; 100 μg insulin/kg
Experimental: Porcine insulin (Sigma Chemical Co., St. Louis, Mo., Catalog No. 1 3505, specific activity: approximately 24 IU/mg) was encapsulated in 2,5-diketo- 3,6-di (4-fumarylamino)piperazine, prepared using the same method in Example 1, by dissolving the diketopiperazine in sodium bicarbonate to form a solution containing 12.5 mg diketopiperazine/ml solution. This solution was then mixed with an equal volume of citric acid solution containing porcine insulin at a concentration of 0.172 mg insulin/ml citric acid to form a white precipitate. The product was collected by centrifuge and washed once with 200 ml of deionized water, and then dried overnight in the lyophilizer. The product was assayed by HPLC and found to contain 1.6% insulin by weight.
In total, three male rats weighing about 200 g each were each administered a dose of 100 μg insulin/kg body weight. The dose was given subcutaneously and also as insulin encapsulated in diketopiperazine. Control animals received only the diketopiperazine and the vehicle, phosphate buffered saline. Blood glucose levels were measured on samples taken from the tail vein at various times after treatment and measured as mg of glucose/dl blood using one drop of tail blood squeezed onto a Glucofilm™ strip.

[2] = Solubility in aqueous media; format: physicochemical
[3] = at clinically effective concentrations; cited from earlier work

Molecule: encapsulated insulin by subcutaneous injection: Porcine insulin (Sigma Chemical Co.), given subcutaneously
- blood glucose level [1]: A marked decrease in blood glucose level

Molecule: O=C(O)CCC(=O)NCCCCC1NC(=O)C(CCCCNC(=O)CCC(=O)O)NC1=O (stereo not shown) [2,5-diketo-3,6-di(4-succinylaminobutyl)piperazine]
- solubility ([2]; acidic aqueous solutions): quite insoluble in acidic aqueous solutions
- solubility ([2]; weakly alkaline aqueous solution): readily soluble in weakly alkaline aqueous solution

Molecule: NC(=O)OCC(COC(N)=O)c1ccccc1 [felbamate]
- solubility in aqueous media [3]: not soluble in aqueous media at clinically effective concentrations
